The source of these data is patent US20240423207A1, “PICOLINAMIDE COMPOUNDS WITH FUNGICIDAL ACTIVITY” (CORTEVA AGRISCIENCE LLC, priority 2014, published 2024).

The subject of assay [1] is Mycosphaerella graminicola; Anamorph: Septoria tritici. Description: Leaf Blotch of Wheat (SEPTTR) fungicidal activity on wheat seedlings. In kind it is in vivo. Particulars: Zymoseptoria tritici; for pest or weed control at 121.5 g/ha: Low Volume, 121.5 g/H. Here is the method:
Example A: Evaluation of Fungicidal Activity: Leaf Blotch of Wheat (Mycosphaerella graminicola; Anamorph: Septoria tritici; Bayer code […]): Technical grades of materials were dissolved in acetone, which were then mixed with nine volumes of water (H2O) containing 110 ppm Triton X-100. The fungicide solutions were applied onto wheat seedlings using an automated booth sprayer to run-off. All sprayed plants were allowed to air dry prior to further handling. All fungicides were evaluated using the aforementioned method for their activity vs. all target diseases, unless stated otherwise. Wheat leaf blotch and brown rust activity were also evaluated using track spray applications, in which case the fungicides were formulated as EC formulations, containing 0.1% Trycol 5941 in the spray solutions. Wheat plants (variety Yuma) were grown from seed in a greenhouse in 50% mineral soil/50% soil-less Metro mix until the first leaf was fully emerged, with 7-10 seedlings per pot. These plants were inoculated with an aqueous spore suspension of Septoria tritici either prior to or after fungicide treatments. After inoculation the plants were kept in 100% relative humidity (one day in a dark dew chamber followed by two to three days in a lighted dew chamber at 20° C.) to permit spores to germinate and infect the leaf. The plants were then transferred to a greenhouse set at 20° C. for disease to develop. When disease symptoms were fully expressed on the 1st leaves of untreated plants, infection levels were assessed on a scale of 0 to 100 percent disease severity. Percent disease control was calculated using the ratio of disease severity on treated plants relative to untreated plants.

Assay [2] concerns Puccinia triticina; Synonym: Puccinia recondita f sp. tritici. Description: Wheat Brown Rust (PUCCRT) fungicidal activity on wheat seedlings. Particulars: for pest or weed control at 100 ppm: High Volume; for pest or weed control at 121.5 g/ha: Low Volume, 121.5 g/H. The class given is in vivo. On the procedure:
Technical grades of materials were dissolved in acetone, which were then mixed with nine volumes of water (H2O) containing 110 ppm Triton X-100. The fungicide solutions were applied onto wheat seedlings using an automated booth sprayer to run-off. All sprayed plants were allowed to air dry prior to further handling. All fungicides were evaluated using the aforementioned method for their activity vs. all target diseases, unless stated otherwise. Wheat leaf blotch and brown rust activity were also evaluated using track spray applications, in which case the fungicides were formulated as EC formulations, containing 0.1% Trycol 5941 in the spray solutions. Wheat plants (variety Yuma) were grown from seed in a greenhouse in 50% mineral soil/50% soil-less Metro mix until the first leaf was fully emerged, with 7-10 seedlings per pot. These plants were inoculated with an aqueous spore suspension of Septoria tritici either prior to or after fungicide treatments. After inoculation the plants were kept in 100% relative humidity (one day in a dark dew chamber followed by two to three days in a lighted dew chamber at 20° C.) to permit spores to germinate and infect the leaf. The plants were then transferred to a greenhouse set at 20° C. for disease to develop. When disease symptoms were fully expressed on the 1st leaves of untreated plants, infection levels were assessed on a scale of 0 to 100 percent disease severity. Percent disease control was calculated using the ratio of disease severity on treated plants relative to untreated plants. Example B: Evaluation of Fungicidal Activity: Wheat Brown Rust (Puccinia triticina; Synonym: Puccinia recondita f sp. tritici; Bayer code PUCCRT): Wheat plants (variety Yuma) were grown from seed in a greenhouse in 50% mineral soil/50% soil-less Metro mix until the first leaf was fully emerged, with 7-10 seedlings per pot. These plants were inoculated with an aqueous spore suspension of Puccinia triticina either prior to or after fungicide treatments. After inoculation the plants were kept in a dark dew room at 22° C. with 100% relative humidity overnight to permit spores to germinate and infect the leaf. The plants were then transferred to a greenhouse set at 24° C. for disease to develop. Fungicide formulation, application and disease assessment followed the procedures as described in the Example A.

[3] abbreviates: 24 h, 1 Day Protectant, read-out: PUCCRT 1DP disease control.
Where [4] appears, read: 72 h, 3 Day Curative, read-out: PUCCRT 3DC disease control.
[5] abbreviates: 24 h, 1 Day Protectant, read-out: SEPTTR 1DP disease control.
Setting [6] is: 72 h, 3 Day Curative, read-out: SEPTTR 3DC disease control.
Where [7] appears, read: 24 h, High Volume, 100 ppm, 1 Day Protectant, read-out: SEPTTR 1DP disease control.
Where [8] appears, read: 72 h, High Volume, 100 ppm, 3 Day Curative, read-out: SEPTTR 3DC disease control.

Like-named read-outs stand apart in the source and are kept apart here. Bounds are passed on as bounds.

`COc1ccnc(C(=O)N[C@@H](C)C(=O)O[C@@H](C)C(c2ccccc2)c2ccccc2)c1O` [Cmpd 90, (S)-(S)-1,1-diphenylpropan-2-yl 2-(3-hydroxy-4-methoxypicolinamido)propanoate]: the pest or weed control at 100 ppm in assay [1] (24 h, read-out: SEPTTR 1DP disease control) is above 80%; in assay [1] (72 h, read-out: SEPTTR 3DC disease control) it was above 80%; in assay [2] (setting [3]) it was above 80%; in assay [2] (setting [4]), above 80%.
`CC[C@H](NC(=O)c1nccc(OC)c1OC(C)=O)C(=O)O[C@@H](C)C(c1ccc(F)cc1)c1ccc(F)cc1` [Cmpd 188]: the pest or weed control at 121.5 g/ha in assay [1] (setting [5]) is above 80%; in assay [1] (setting [6]) it was above 80%; in assay [2] (setting [3]), above 80%; in assay [2] (setting [4]), below 80%.
With `COc1ccnc(C(=O)N[C@@H](C)C(=O)O[C@@H](C)C(c2ccc(C)c(F)c2)c2ccc(C)c(F)c2)c1OCOC(C)=O` [Cmpd 194], the pest or weed control at 121.5 g/ha in assay [1] (setting [5]) was above 80%; in assay [1] (setting [6]) it was above 80%; in assay [2] (setting [3]), above 80%; in assay [2] (setting [4]), below 80%.
`COc1ccnc(C(=O)N[C@@H](C)C(=O)O[C@@H](C)C(F)(c2ccccc2)c2ccccc2)c1O` [Cmpd 97]: the results for the pest or weed control at 100 ppm in assay [1] (setting [7]), in assay [1] (setting [8]) and in assay [2] (setting [3]) were above 80%, above 80% and below 80%, respectively.
As for `COc1ccnc(C(=O)N[C@@H](CC(C)C)C(=O)O[C@@H](C)C(c2ccc(F)cc2)c2ccc(F)cc2)c1OC(C)=O` [Cmpd 190], the pest or weed control at 121.5 g/ha in assay [1] (setting [5]), in assay [1] (setting [6]) and in assay [2] (setting [3]) was below 80% in each case.
Regarding `COc1ccnc(C(=O)N[C@@H](C)C(=O)O[C@@H](C)C(c2ccc(F)c(Cl)c2)c2ccc(F)c(Cl)c2)c1OC(C)=O` [Cmpd 216], the pest or weed control at 121.5 g/ha in assay [1] (setting [5]) is above 80%; in assay [1] (setting [6]), below 80%; in assay [2] (setting [3]), above 80%; in assay [2] (setting [4]), below 80%.
Turning to `COc1ccnc(C(=O)N[C@@H](C)C(=O)O[C@@H](C)C(c2ccc(C)s2)c2ccc(C)s2)c1O` [Cmpd 104], the pest or weed control at 100 ppm is below 80% in assay [1] (setting [7]), above 80% in assay [1] (setting [8]) and above 80% in assay [2] (setting [3]).
Consider `COc1ccnc(C(=O)N[C@@H](C)C(=O)O[C@@H](C)C(c2cccs2)c2cccs2)c1OCOC(C)=O` [Cmpd 144], for which the pest or weed control at 121.5 g/ha in assay [1] (setting [5]), in assay [1] (setting [6]), in assay [2] (setting [3]) and in assay [2] (setting [4]) was below 80% throughout.
As for `COc1ccccc1C(c1ccccc1OC)[C@H](C)OC(=O)[C@H](C)NC(=O)c1nccc(OC)c1OCOC(C)=O` [Cmpd 191], the pest or weed control at 121.5 g/ha in assay [1] (setting [5]), in assay [1] (setting [6]), in assay [2] (setting [3]) and in assay [2] (setting [4]) was above 80% each time.
As to `COc1ccnc(C(=O)N[C@@H](C)C(=O)O[C@@H](C)C(c2ccc(C)c(F)c2)c2ccc(C)c(F)c2)c1O` [Cmpd 120], the pest or weed control at 100 ppm was above 80% in assay [1] (setting [7]), above 80% in assay [1] (setting [8]), above 80% in assay [2] (setting [3]) and below 80% in assay [2] (setting [4]).
For `COc1ccnc(C(=O)N[C@@H](C)C(=O)O[C@@H](C)C(c2ccc(Cl)c(C)c2)c2ccc(Cl)c(C)c2)c1OC(C)=O` [Cmpd 206], the pest or weed control at 121.5 g/ha in assay [1] (setting [5]) is above 80%; in assay [1] (setting [6]), above 80%; in assay [2] (setting [3]), above 80%; in assay [2] (setting [4]), below 80%.
Consider `COc1ccnc(C(=O)N[C@@H](C)C(=O)O[C@@H](C)C(c2ccc(F)c(F)c2)c2ccc(F)c(F)c2)c1OC(C)=O` [Cmpd 215], for which the pest or weed control at 121.5 g/ha in assay [1] (setting [5]), in assay [1] (setting [6]) and in assay [2] (setting [3]) was above 80% in each case.
`CCCCC(=O)Oc1c(OC)ccnc1C(=O)N[C@@H](C)C(=O)O[C@@H](C)C(c1ccc(F)cc1)c1ccc(F)cc1` [Cmpd 213]: the pest or weed control at 121.5 g/ha was above 80% in assay [1] (setting [5]), above 80% in assay [1] (setting [6]), below 80% in assay [2] (setting [3]) and below 80% in assay [2] (setting [4]).
As to `COc1ccnc(C(=O)N[C@@H](C)C(=O)O[C@@H](C)C(c2ccc(Cl)c(C)c2)c2ccc(Cl)c(C)c2)c1O` [Cmpd 129], the pest or weed control at 100 ppm was above 80% in assay [1] (setting [7]), above 80% in assay [1] (setting [8]), above 80% in assay [2] (setting [3]) and below 80% in assay [2] (setting [4]).
With `COc1ccnc(C(=O)N[C@H](C(=O)O[C@@H](C)C(c2ccc(F)cc2)c2ccc(F)cc2)C(C)C)c1OCOC(C)=O` [Cmpd 185], the pest or weed control at 121.5 g/ha was above 80% in assay [1] (setting [5]), above 80% in assay [1] (setting [6]), above 80% in assay [2] (setting [3]) and below 80% in assay [2] (setting [4]).
With `COc1ccnc(C(=O)N[C@@H](C)C(=O)O[C@@H](C)C(c2ccc(-c3ccccc3)cc2)c2ccc(-c3ccccc3)cc2)c1OC(C)=O` [Cmpd 182], the pest or weed control at 121.5 g/ha in assay [1] (setting [6]) and in assay [2] (setting [4]) was below 80% each time.
Regarding `COc1ccccc1C(c1ccccc1OC)[C@H](C)OC(=O)[C@H](C)NC(=O)c1nccc(OC)c1O` [Cmpd 117], the pest or weed control at 100 ppm is above 80% in assay [1] (setting [7]), above 80% in assay [1] (setting [8]), above 80% in assay [2] (setting [3]) and below 80% in assay [2] (setting [4]).
Consider `COc1ccnc(C(=O)N[C@@H](C)C(=O)O[C@@H](C)C(c2cccs2)c2cccs2)c1OC(C)=O` [Cmpd 143], for which the pest or weed control at 121.5 g/ha in assay [1] (setting [6]) and in assay [2] (setting [3]) was below 80% throughout.
With `COc1ccc(C(c2ccc(OC)cc2)[C@H](C)OC(=O)[C@H](C)NC(=O)c2nccc(OC)c2O)cc1` [Cmpd 98], the pest or weed control at 100 ppm in assay [1] (setting [7]), in assay [1] (setting [8]), in assay [2] (setting [3]) and in assay [2] (setting [4]) was above 80% each time.
Take `COc1ccnc(C(=O)N[C@@H](C)C(=O)O[C@@H](C)C(c2ccc(C)c(Cl)c2)c2ccc(C)c(Cl)c2)c1O` [Cmpd 121]: the pest or weed control at 100 ppm was above 80% in assay [1] (setting [7]), above 80% in assay [1] (setting [8]), above 80% in assay [2] (setting [3]) and below 80% in assay [2] (setting [4]).
Regarding `COc1cccc(C(c2cccc(OC)c2)[C@H](C)OC(=O)[C@H](C)NC(=O)c2nccc(OC)c2O)c1` [Cmpd 118], the pest or weed control at 100 ppm in assay [1] (setting [7]) was below 80%; in assay [1] (setting [8]), above 80%; in assay [2] (setting [3]), above 80%; in assay [2] (setting [4]) it was above 80%.
Turning to `COc1ccnc(C(=O)N[C@@H](C)C(=O)O[C@@H](C)C(c2ccc(F)c(Cl)c2)c2ccc(F)c(Cl)c2)c1O` [Cmpd 132], the pest or weed control at 100 ppm in assay [1] (setting [7]) is above 80%; in assay [1] (setting [8]), above 80%; in assay [2] (setting [3]), above 80%; in assay [2] (setting [4]) it was below 80%.
